Here are results for two compounds from patent US8912123B2, “Safened herbicidal compositions including 4-amino-3-chloro-5-fluoro-6-(4-chloro-2-fluoro-3-methoxyphenyl)pyridine-2-carboxylic acid or a derivative thereof and methods for their use” (Dow AgroSciences, LLC., priority 2012, dated 2014).

The data set deals with winter barley (Hordeum vulgare, HORVW). The experiment in a line: Post-emergence field trial, visual crop injury (ear deformation) in winter barley. In kind it is in vivo. As to conditions: for Observed Visual Injury - Ear Deformation (%) 227 DAA HORVW: no safener, 1 L/ha Agnique BL3095, post-emergence field, scale 0-100. On the procedure: A post-emergence field trial was conducted under field conditions in Helbigsdorf, Germany. Trial site was located in commercially grown fields of winter barley (Hordeum vulgare, HORVW) using standard herbicide small plot research methodology. Postemergence trial plot was 2.5 meter (m)×5 m (width×length) with 3 replicates per treatment. The crop was grown using normal cultural practices for fertilization, seeding, and maintenance to ensure good growth of the crop and the weeds. Trial treatments included spray formulations containing 4-amino-3-chloro-5-fluoro-6-(4-chloro-2-fluoro-3-methoxy-phenyl)pyridine-2-carboxylic acid (Compound A) at various rates and optionally including cloquintocet mexyl. All treatments in the post-emergence field trials were applied using a bicycle sprayer compressed air/gas sprayer with flat fan nozzles (90°) calibrated to apply 200 L/ha spray volume at approximately 250 kPa nozzle pressure. The spray formulations for Trials 1-4 listed in Table 1 included Dow AgroSciences testing formulation Compound A (listed in acid equivalent per hectare (g ae/ha)), Agnique BL3095 (Cognis, France; listed as liters of product per hectare (L pr/ha)), and optionally cloquintocet mexyl (listed as grams of active ingredient per hectare (g ai/ha)). The spray solutions were mixed in water at the levels indicated in Table 1 to achieve the desired rates based on a unit area of application (hectare). Data for observed visual injury is provided for 227 days after application (DAA) in Table 1. Visual crop injury (ear deformation) was scored on a scale of 0 to 100 percent where 0 corresponds to no injury and 100 correspond to damage at all plants. All treatment results, both for the single product and mixture, are with 4 replicates. The trial sites had naturally occurring populations of weeds. The weed spectrum included loose silky-bent ([…]).

For the compound `COc1c(Cl)ccc(-c2nc(C(=O)O)c(Cl)c(N)c2F)c1F` [Compound A, 4-amino-3-chloro-5-fluoro-6-(4-chloro-2-fluoro-3-methoxy-phenyl)pyridine-2-carboxylic acid], the “Observed Visual Injury - Ear Deformation (%) 227 DAA HORVW” value runs as follows: (Compound A 10 g ae/ha) 27%; (Compound A 20 g ae/ha) 30%; (Compound A 30 g ae/ha) 30%.
On to `CCCCCC(C)OC(=O)COc1ccc(Cl)c2cccnc12` (stereo not shown) [cloquintocet-mexyl, reference compound], for which the “Safening of the compound of formula I in winter barley” value (conclusion from Table 1, winter barley) is “safened”.
